The values below come from patent US10433553B2, “Salts of N-(1,3,4-oxadiazol-2-yl) aryl carboxylic acid amides and the use of same as herbicides” (BAYER CROPSCIENCE AKTIENGESELLSCHAFT, priority 2015, dated 2019).

What all share (type): in vivo
Holding throughout (conditions): dosage 5 g/ha, assessed visually after about 3 weeks

One data set concerns VERPE. The data set is described as follows: Post-emergence herbicidal action against harmful plants. The protocol:
(§1) 2. Post-Emergence Herbicidal Action Against Harmful Plants
(§2) Seeds of monocotyledonous and dicotyledonous weed and crop plants are laid out in sandy loam in wood-fiber pots, covered with soil and cultivated in a greenhouse under good growth conditions. 2 to 3 weeks after sowing, the test plants are treated at the one-leaf stage.

The subject of another data set is TRZAS. The data set is described as follows: Post-emergence damage to crop plants. The protocol:
as §1, §2

In the next data set the test system is ALOMY. Kind of data set: Post-emergence herbicidal action against harmful plants. The procedure: as §1, §2

As to `Cc1nnc([N-]C(=O)c2ccc(C(F)(F)F)c([S+](C)[O-])c2Cl)o1.[Na+]` (centres unmarked), in the data set on VERPE, the “Activity against VERPE” value was 70%. Besides, the “Damage to TRZAS” value in the data set with TRZAS came to 0%.
With `Cc1nnc([N-]C(=O)c2ccc(C(F)(F)F)c(S(C)(=O)=O)c2C)o1.[Na+]` [drawing 51], the “Activity against ALOMY” value in the data set on ALOMY came to 80%. In addition, the “Activity against VERPE” value in the data set on VERPE is 100%. Besides, the “Damage to TRZAS” value in the data set on TRZAS stood at 0%.
